In article PMC5381274 (FEBS letters, 2016):

Key:
NCI H929 cells = assay: JC1 BH3 profiling, NCI H929; assay type: cell-based; details: Figure 4A
K562 cells = assay: JC1 BH3 profiling, K562; assay type: cell-based; details: Figure 4B

Molecule | Mitochondrial depolarization in NCI H929 (BH3 profiling) (NCI H929 cells) | Mitochondrial depolarization in K562 (BH3 profiling) (K562 cells)
CSCC[C@H](NC(=O)[C@H](CCCNC(=N)N)NC(=O)[C@H](CCCNC(=N)N)NC(=O)[C@H](CC(C)C)NC(=O)[C@H](CCC(=O)O)NC(=O)[C@H](CCCNC(=N)N)NC(=O)CNC(=O)[C@H](Cc1ccc(O)cc1)NC(=O)[C@H](CCCNC(=N)N)NC(=O)[C@H](CCC(N)=O)NC(=O)[C@H](C)NC(=O)[C@H](C)NC(=O)[C@H](Cc1c[nH]c2ccccc12)NC(=O)[C@H](CC(C)C)NC(C)=O)C(=O)N[C@@H](CO)C(=O)N[C@@H](CC(=O)O)C(=O)N[C@@H](CCC(=O)O)C(=O)N[C@@H](Cc1ccccc1)C(=O)N[C@@H](CCC(=O)O)C(=O)NCC(=O)N[C@@H](CO)C(=O)N[C@@H](Cc1ccccc1)C(=O)N[C@@H](CCCCN)C(=O)NCC(=O)N[C@@H](CC(C)C)C(N)=O [Bad] | not affected | –
CC[C@H](C)[C@H](NC(=O)[C@H](CCC(=O)O)NC(=O)[C@H](CC(=O)O)NC(=O)CNC(=O)[C@H](CC(C)C)NC(=O)[C@H](CCCNC(=N)N)NC(=O)[C@H](CCCNC(=N)N)NC(=O)[C@H](CC(C)C)NC(=O)CNC(=O)[C@H](CCC(N)=O)NC(=O)[C@@H](NC(=O)[C@H](CCSC)NC(=O)[C@H](Cc1c[nH]c2ccccc12)NC(=O)[C@@H](NC(=O)[C@H](CCC(=O)O)NC(=O)[C@@H]1CCCN1C(=O)[C@H](CCCNC(=N)N)NC(C)=O)[C@@H](C)CC)[C@@H](C)O)C(=O)N[C@@H](CC(N)=O)C(=O)N[C@@H](C)C(=O)N[C@@H](Cc1ccc(O)cc1)C(=O)N[C@@H](Cc1ccc(O)cc1)C(=O)N[C@@H](C)C(=O)N[C@@H](CCCNC(=N)N)C(N)=O [MS-1] | mitochondrial depolarization was observed | insensitive
Ac-WSSAAQLTAARLKALGDELHQ-NH2 [HRK] | not affected | –
